Source: PubChem BioAssay (NCI)
Where “and” joins values, the source holds several entries; their conditions need not be identical. Identical values can stand only once.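 Five compound concentrations were applied to cells in 96-well plates for 48 hours; endpoints were derived by simple linear interpolation of the resulting dose-response curve. The concentration for 50% growth inhibition is given as GI50. Definition used: TGI = concentration required for complete inhibition of growth.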

Assays:
Experiment in all cases: growth of human tumour cells (NCI), 48 h
ACHN renal = tested on: ACHN renal
EKVX NSCLC = tested on: EKVX NSCLC
HS 578T breast = tested on: HS 578T breast
MOLT-4 leukemia = tested on: MOLT-4 leukemia
NCI-H226 lung = tested on: NCI-H226 lung
OVCAR-3 ovarian = tested on: OVCAR-3 ovarian
RXF 393 renal = tested on: RXF 393 renal
SF-295 CNS = tested on: SF-295 CNS
UACC-257 melanoma = tested on: UACC-257 melanoma
HOP-92 NSCLC = tested on: HOP-92 NSCLC

Structure (SMILES) | TGI (ACHN renal) | TGI (EKVX NSCLC) | TGI (HS 578T breast) | TGI (MOLT-4 leukemia) | TGI (NCI-H226 lung) | TGI (OVCAR-3 ovarian) | TGI (RXF 393 renal) | TGI (SF-295 CNS) | TGI (UACC-257 melanoma) | TGI (HOP-92 NSCLC) | GI50 (MOLT-4 leukemia) | GI50 (SF-295 CNS)
C=C(CO[Si](C)(C)C(C)(C)C)C(C)=O | > 71.4 µM | > 100 µM | > 84.4 µM | > 21.2 µM | > 100 µM | 38.1 µM | 29 µM | > 100 µM | 34.3 µM |  |  | 
CCOC(=O)C(NC(=O)CC)(Nc1cc(C)on1)C(F)(F)F (stereo unspecified) | > 100 µM | > 100 µM | > 100 µM | > 100 µM |  |  | > 100 µM |  | > 100 µM |  |  | 
COC1OC2COC1(OC)C1OC(C)(C)OC21 (stereo unspecified) | > 100 µM | > 100 µM | > 100 µM | > 100 µM | > 100 µM | > 100 µM | > 100 µM | > 100 µM | > 100 µM |  |  | 
CC1CC/C(=C\c2ccc(Cl)cc2)C2OC(N)=C(C#N)C(c3ccc(Cl)cc3)=C12 (stereo unspecified) | 29.9 µM | 22.7 µM | 49.1 µM | 24.2 µM | 27.1 µM | 27.5 µM | 71.8 µM |  | 53.4 µM |  |  | 
CCN(C(=S)N[C@H](C(=O)N[C@@H](C)C(=O)OC)C(C)C)c1ccccc1 | > 100 µM | > 100 µM |  | > 100 µM | > 100 µM | > 100 µM | > 100 µM | > 100 µM | > 100 µM | > 100 µM |  | 
OC(CCNCc1ccccc1)c1ccc2ccccc2c1 (stereo unspecified) | 41.5 µM | > 100 µM | 47.7 µM | 84.8 µM | 46.7 µM | 29.5 µM | 37.1 µM | 63.9 µM | 32.2 µM |  |  | 
Cc1c(NC(=O)CSC(=S)N2CCN(Cc3ccccc3)CC2)c(=O)n(-c2ccccc2)n1C | > 100 µM | > 100 µM | > 100 µM | > 100 µM | > 100 µM | > 100 µM | > 100 µM | > 100 µM | > 100 µM |  |  | 
NNC(=O)Cn1c2ccc(Br)cc2c2nc3ccccc3nc21 | > 100 µM | > 100 µM |  | > 100 µM | > 100 µM | > 100 µM | > 100 µM | > 100 µM | > 100 µM |  |  | 
O=c1c2cc(I)ccc2nc(-c2cccs2)n1-c1ccc(O)cc1 | 22.5 µM | 33.4 µM |  | 78.9 µM | 35.9 µM | 21.8 µM | 30.8 µM | 27.4 µM | 22.1 µM | 26.9 µM |  | 
C(CCCCc1nnc(N2CCCCC2)o1)CCCc1nnc(N2CCCCC2)o1 | > 100 µM | > 100 µM |  | > 100 µM | > 100 µM | > 100 µM | > 100 µM | > 100 µM | > 100 µM | > 100 µM |  | 
O=c1ccn(CC2(CO)CC(Cc3ccccc3)C2)c(=O)[nH]1 (stereo unspecified) | > 100 µM | > 100 µM | > 100 µM | > 100 µM | > 100 µM | > 100 µM | > 100 µM | > 100 µM | > 100 µM |  |  | 
COc1ccc(NC(C)=O)cc1N1C(=O)/C(=C\c2cc(OC)c(OC)c(OC)c2)SC1c1ccccc1 (stereo unspecified) | > 100 µM | > 100 µM |  | 65.6 µM | > 100 µM | > 100 µM | > 100 µM | > 100 µM | > 100 µM | > 100 µM |  | 
COc1ccc(C2=NN(c3ccccc3)C[N+](c3ccc(OC)cc3)=N2)cc1 | > 100 µM | > 100 µM |  | 90.7 µM | 64.6 µM | 46 µM | 72.1 µM | > 100 µM | > 100 µM |  |  | 
CC1(C)C2C=CC1(C)C1(CC2)OCCO1 (stereo unspecified) | > 100 µM |  | > 100 µM | > 100 µM | > 100 µM | > 100 µM | > 100 µM | > 100 µM | > 100 µM |  |  | 
COC(=O)c1cc2ccc(OC(C)=O)c(OC(C)=O)c2cn1 | 31.5 µM | 38.1 µM |  | 6.54 µM and 4.28 µM | 41.7 µM | 30.9 µM | 33.4 µM |  | 29.2 µM | 32.4 µM | 2.22 µM | 42.1 µM
Nc1ncnc2c1nnn2C1CCC(CP(=O)(O)O)C1 (stereo unspecified) | > 100 µM | > 100 µM |  | > 100 µM | > 100 µM | > 100 µM | > 100 µM | > 100 µM | > 100 µM | > 100 µM |  | 
COc1ccc(-c2c(C#N)c(S)n(NS(=O)(=O)c3ccc(C)cc3)c(=O)c2C#N)cc1 | 41.3 µM | 68.3 µM |  | 34.3 µM | 89.5 µM |  | 42.5 µM | > 100 µM | > 100 µM | > 100 µM |  | 
COc1ccc(C(=O)Cc2ccc(Br)cc2)cc1OC | > 100 µM | > 100 µM |  | > 100 µM | > 100 µM | > 100 µM | > 100 µM | > 100 µM | > 100 µM |  |  | 
CN(C(=O)c1ccco1)C(=S)N1CCN(c2ccccc2)CC1 | > 100 µM |  |  | > 100 µM | > 100 µM | > 100 µM | > 100 µM | > 100 µM | > 100 µM | > 100 µM |  | 
COc1ccc(-c2cc(-c3ccc(Nc4ccnc5cc(Cl)ccc45)cc3)[nH]c(=O)c2C#N)c2ccccc12 | > 100 µM | > 100 µM |  | 6.17 µM | > 100 µM | 5.34 µM | 28.3 µM | > 50.1 µM | 99.4 µM | 30.8 µM |  | 
